Here are results for 2 compounds from patent US20230065368A1, “INHIBITING UBIQUITIN SPECIFIC PEPTIDASE 9X” (FORMA Therapeutics, Inc., priority 2018, published 2023).

pIC50: −log10 of the molar value.

The assay deals with USP9X (Homo sapiens, UniProt Q93008). The experiment in a line: Biochemical Assay for USP9X Inhibition (Ub-Rh110 fluorescence). The note with it: Biochemical Assay of Example 1, 25 nM Ub-Rh110, 30 min preincubation, Table 23 additional compounds. Here is the method: Biochemical Assay for USP9X Inhibition
Chain of USP9X (Q93008 whole entry, species assumed): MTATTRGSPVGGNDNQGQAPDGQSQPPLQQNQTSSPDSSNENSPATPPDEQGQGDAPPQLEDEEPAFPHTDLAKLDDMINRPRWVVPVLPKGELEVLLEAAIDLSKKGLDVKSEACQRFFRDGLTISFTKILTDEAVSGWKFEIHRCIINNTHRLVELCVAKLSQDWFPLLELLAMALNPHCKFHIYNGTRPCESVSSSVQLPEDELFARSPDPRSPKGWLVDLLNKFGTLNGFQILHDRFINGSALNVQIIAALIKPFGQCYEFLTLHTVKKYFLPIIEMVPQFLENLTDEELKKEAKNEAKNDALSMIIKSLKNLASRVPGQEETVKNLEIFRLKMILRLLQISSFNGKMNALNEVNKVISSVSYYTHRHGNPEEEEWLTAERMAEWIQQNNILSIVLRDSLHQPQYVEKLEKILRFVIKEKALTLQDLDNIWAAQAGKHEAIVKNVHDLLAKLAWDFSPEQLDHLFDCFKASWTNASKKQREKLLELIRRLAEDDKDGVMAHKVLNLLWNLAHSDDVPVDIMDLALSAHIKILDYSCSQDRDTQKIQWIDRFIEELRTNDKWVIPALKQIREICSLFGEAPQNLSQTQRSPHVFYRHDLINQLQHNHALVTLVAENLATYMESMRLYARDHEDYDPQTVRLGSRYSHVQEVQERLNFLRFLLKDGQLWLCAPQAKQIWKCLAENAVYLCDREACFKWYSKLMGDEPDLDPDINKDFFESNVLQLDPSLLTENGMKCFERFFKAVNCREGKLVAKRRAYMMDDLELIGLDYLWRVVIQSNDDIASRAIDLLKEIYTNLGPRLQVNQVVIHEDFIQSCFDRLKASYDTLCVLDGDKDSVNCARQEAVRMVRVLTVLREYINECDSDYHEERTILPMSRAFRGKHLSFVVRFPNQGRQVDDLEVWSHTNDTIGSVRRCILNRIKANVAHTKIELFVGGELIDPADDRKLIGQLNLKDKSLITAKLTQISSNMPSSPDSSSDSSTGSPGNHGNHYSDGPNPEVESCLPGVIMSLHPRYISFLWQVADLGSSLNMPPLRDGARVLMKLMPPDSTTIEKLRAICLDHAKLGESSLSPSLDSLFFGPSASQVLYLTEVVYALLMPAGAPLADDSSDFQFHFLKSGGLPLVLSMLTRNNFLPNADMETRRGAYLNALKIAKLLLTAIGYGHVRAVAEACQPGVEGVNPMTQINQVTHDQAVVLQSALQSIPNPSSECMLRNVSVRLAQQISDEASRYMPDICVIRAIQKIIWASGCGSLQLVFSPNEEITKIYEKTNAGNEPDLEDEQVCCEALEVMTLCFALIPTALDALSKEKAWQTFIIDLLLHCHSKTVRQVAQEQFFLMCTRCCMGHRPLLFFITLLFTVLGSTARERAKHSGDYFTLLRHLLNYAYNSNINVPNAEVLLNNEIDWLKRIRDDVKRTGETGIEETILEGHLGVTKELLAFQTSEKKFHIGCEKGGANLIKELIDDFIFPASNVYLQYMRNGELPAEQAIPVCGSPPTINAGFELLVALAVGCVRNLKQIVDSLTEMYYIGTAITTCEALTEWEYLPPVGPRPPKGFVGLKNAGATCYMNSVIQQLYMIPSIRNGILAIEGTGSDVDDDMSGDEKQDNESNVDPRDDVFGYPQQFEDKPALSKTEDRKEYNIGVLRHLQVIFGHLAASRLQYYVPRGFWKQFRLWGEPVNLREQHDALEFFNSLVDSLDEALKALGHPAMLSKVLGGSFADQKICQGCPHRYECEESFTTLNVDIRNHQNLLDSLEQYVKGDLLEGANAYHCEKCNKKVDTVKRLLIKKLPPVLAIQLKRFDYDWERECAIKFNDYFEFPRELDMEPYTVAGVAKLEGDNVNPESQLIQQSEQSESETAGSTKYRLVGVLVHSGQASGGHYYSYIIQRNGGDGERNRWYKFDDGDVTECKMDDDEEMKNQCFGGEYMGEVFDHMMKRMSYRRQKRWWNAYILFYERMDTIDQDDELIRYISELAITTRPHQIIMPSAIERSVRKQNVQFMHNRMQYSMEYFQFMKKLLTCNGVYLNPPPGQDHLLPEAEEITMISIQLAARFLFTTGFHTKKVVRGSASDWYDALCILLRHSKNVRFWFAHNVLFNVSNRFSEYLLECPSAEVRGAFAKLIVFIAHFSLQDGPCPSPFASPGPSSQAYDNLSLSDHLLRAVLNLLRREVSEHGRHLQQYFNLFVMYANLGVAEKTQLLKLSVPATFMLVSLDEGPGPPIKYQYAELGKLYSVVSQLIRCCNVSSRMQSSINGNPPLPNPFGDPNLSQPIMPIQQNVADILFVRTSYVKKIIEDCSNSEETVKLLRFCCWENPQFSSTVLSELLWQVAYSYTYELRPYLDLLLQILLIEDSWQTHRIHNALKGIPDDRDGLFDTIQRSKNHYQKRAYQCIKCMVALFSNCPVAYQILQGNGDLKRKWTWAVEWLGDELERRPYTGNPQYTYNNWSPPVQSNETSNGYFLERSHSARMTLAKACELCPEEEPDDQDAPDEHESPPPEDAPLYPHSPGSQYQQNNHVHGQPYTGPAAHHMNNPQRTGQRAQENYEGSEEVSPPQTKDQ
Concentration and incubation times were optimized for the maximal signal-to-background while maintaining initial velocity conditions at a fixed substrate concentration (<<Km). […] To assay plates (pre-stamped with compound) was added 3 μL 2× Enzyme. The enzyme was preincubated for 30 minutes and then treated with 3 μL of 2× Substrate. […] The slope (best fit linear regression) of the five reads was used to normalize for inhibition. For all assays, data are reported as percent inhibition compared with control wells based on the following equation: […], wherein FLU is measured Fluorescence, AveLow is average Fluorescence of no enzyme control (n=64), and AveHigh is average Fluorescence of DMSO control (n=64). IC50 values are determined by curve fitting of the standard 4 parameter logistic fitting algorithm included in the Activity Base software package: IDBS XE Designer Model205. Data are fitted using the Levenburg Marquardt algorithm.

A word on the pIC50: it is the IC50 on a negative log10 scale, so that one unit is a factor of ten. A high value points to a small IC50. In the case of `O=C([C@@H](CO)c1ccccc1)N1CC2=C(C1)CN(S(=O)(=O)c1cnc3c(c1)OCCO3)C2` [Example C-7], the pIC50 was 5.70 to 6.70. Then `O=C([C@H](CO)c1ccccc1)N1CC2=C(C1)CN(S(=O)(=O)c1cnc3c(c1)OCCO3)C2` [Example C-8], with 4.60 to 5.70.
